Test results published in US9580442B2, “Tricyclic heterocyclic compounds as phosphoinositide 3-kinase inhibitors” (Karus Therapeutics Limited, priority 2009, dated 2017).
Read-outs that look alike come from different tables or passages of the source.

Assays:
[1] = target: PI3K p110α (Homo sapiens (Human), UniProt P42336); assay: PI3K isoform biochemical assay, p110α
[2] = target: PI3K p110β (Homo sapiens (Human), UniProt P42338); assay: PI3K isoform biochemical assay, p110β
[3] = target: PI3K p110δ (Homo sapiens (Human), UniProt O00329); assay: PI3K isoform biochemical assay, p110δ
[4] = target: PI3K p110γ (Homo sapiens (Human), UniProt P48736); assay: PI3K isoform biochemical assay, p110γ
[5] = tested on: Rheumatoid Arthritis Synovial Fibroblast (RASF); assay: In vitro inhibition of rheumatoid arthritis synovial fibroblast (RASF) proliferation; type: cell-based
[6] = tested on: PC3 (Prostate Tumour); assay: In vitro inhibition of tumour cell proliferation, PC3; type: cell-based
[7] = tested on: MCF7 (Breast Tumour); assay: In vitro inhibition of tumour cell proliferation, MCF7; type: cell-based
[8] = tested on: A549 (Lung Tumour); assay: In vitro inhibition of tumour cell proliferation, A549; type: cell-based
[9] = tested on: TNFα; assay: Inhibition of TNFα production from LPS-stimulated hPBMCs; type: cell-based, human; conditions: hPBMCs stimulated with LPS; for inhibition at 1 µM: Homo sapiens, read-out: % Inhibition of Proinflammatory Cytokine Production at 1 uM, TNFα
Description: (§1) 2) Anti-Inflammatory Activity: Inhibition of the Production of Pro-Inflammatory Cytokines from Stimulated Human Peripheral Blood Mononuclear Cells (hPBMCs)
(§2) Compounds were tested at a concentration of 1 uM for cytokine release inhibition in hPBMCs stimulated with LPS (TNFα), PHA (IFNγ) and anti-CD3 (IL-17A, IL-17F, IL-21, IL-23): […]

[10] = tested on: IFNγ; assay: Inhibition of IFNγ production from PHA-stimulated hPBMCs; type: cell-based, human; conditions: hPBMCs stimulated with PHA; for inhibition at 1 µM: Homo sapiens, read-out: % Inhibition of Proinflammatory Cytokine Production at 1 uM, IFNγ
Description: as §1, §2

[11] = tested on: IL-17A; assay: Inhibition of IL-17A production from anti-CD3-stimulated hPBMCs; type: cell-based, human; conditions: for inhibition at 1 µM: Homo sapiens, hPBMCs stimulated with anti-CD3, read-out: % Inhibition of Proinflammatory Cytokine Production at 1 uM, IL-17A
Description: as §1, §2

[12] = tested on: IL-17F; assay: Inhibition of IL-17F production from anti-CD3-stimulated hPBMCs; type: cell-based, human; conditions: for inhibition at 1 µM: Homo sapiens, hPBMCs stimulated with anti-CD3, read-out: % Inhibition of Proinflammatory Cytokine Production at 1 uM, IL-17F
Description: as §1, §2

[13] = tested on: IL-21; assay: Inhibition of IL-21 production from anti-CD3-stimulated hPBMCs; type: cell-based, human; conditions: for inhibition at 1 µM: Homo sapiens, hPBMCs stimulated with anti-CD3, read-out: % Inhibition of Proinflammatory Cytokine Production at 1 uM, IL-21
Description: as §1, §2

[14] = tested on: IL-23; assay: Inhibition of IL-23 production from anti-CD3-stimulated hPBMCs; type: cell-based, human; conditions: for inhibition at 1 µM: Homo sapiens, hPBMCs stimulated with anti-CD3, read-out: % Inhibition of Proinflammatory Cytokine Production at 1 uM, IL-23
Description: as §1, §2

[15] = hPBMCs stimulated with anti-CD3

PI3K p110γ, sequence (P48736 whole entry, canonical isoform): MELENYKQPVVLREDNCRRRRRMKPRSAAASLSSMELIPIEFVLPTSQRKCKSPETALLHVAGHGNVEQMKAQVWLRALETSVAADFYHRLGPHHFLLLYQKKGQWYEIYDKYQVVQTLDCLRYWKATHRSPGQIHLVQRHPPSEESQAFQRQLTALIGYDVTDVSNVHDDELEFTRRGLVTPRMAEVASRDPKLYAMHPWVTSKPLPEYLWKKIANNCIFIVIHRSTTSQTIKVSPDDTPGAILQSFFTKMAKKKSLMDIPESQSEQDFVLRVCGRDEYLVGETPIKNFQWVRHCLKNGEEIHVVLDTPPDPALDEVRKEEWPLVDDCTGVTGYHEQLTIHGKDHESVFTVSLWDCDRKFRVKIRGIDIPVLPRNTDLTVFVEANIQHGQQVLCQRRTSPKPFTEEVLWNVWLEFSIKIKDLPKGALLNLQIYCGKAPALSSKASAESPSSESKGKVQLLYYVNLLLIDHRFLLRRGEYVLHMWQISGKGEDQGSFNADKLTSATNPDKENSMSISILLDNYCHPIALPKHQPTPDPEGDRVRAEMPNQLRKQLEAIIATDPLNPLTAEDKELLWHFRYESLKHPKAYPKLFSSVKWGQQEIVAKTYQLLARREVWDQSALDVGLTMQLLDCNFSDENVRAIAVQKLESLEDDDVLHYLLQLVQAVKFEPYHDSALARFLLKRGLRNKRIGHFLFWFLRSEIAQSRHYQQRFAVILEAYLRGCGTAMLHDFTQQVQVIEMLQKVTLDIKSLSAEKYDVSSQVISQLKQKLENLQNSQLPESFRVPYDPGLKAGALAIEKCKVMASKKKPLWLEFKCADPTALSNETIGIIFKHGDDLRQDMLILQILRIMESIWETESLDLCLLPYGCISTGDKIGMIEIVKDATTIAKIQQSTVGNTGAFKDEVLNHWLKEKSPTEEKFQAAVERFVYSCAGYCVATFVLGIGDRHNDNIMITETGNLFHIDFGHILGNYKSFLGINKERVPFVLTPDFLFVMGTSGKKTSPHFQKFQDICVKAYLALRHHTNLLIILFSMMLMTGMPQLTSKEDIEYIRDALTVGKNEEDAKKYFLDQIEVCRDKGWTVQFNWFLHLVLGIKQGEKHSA
PI3K p110δ, sequence (O00329 whole entry, canonical isoform): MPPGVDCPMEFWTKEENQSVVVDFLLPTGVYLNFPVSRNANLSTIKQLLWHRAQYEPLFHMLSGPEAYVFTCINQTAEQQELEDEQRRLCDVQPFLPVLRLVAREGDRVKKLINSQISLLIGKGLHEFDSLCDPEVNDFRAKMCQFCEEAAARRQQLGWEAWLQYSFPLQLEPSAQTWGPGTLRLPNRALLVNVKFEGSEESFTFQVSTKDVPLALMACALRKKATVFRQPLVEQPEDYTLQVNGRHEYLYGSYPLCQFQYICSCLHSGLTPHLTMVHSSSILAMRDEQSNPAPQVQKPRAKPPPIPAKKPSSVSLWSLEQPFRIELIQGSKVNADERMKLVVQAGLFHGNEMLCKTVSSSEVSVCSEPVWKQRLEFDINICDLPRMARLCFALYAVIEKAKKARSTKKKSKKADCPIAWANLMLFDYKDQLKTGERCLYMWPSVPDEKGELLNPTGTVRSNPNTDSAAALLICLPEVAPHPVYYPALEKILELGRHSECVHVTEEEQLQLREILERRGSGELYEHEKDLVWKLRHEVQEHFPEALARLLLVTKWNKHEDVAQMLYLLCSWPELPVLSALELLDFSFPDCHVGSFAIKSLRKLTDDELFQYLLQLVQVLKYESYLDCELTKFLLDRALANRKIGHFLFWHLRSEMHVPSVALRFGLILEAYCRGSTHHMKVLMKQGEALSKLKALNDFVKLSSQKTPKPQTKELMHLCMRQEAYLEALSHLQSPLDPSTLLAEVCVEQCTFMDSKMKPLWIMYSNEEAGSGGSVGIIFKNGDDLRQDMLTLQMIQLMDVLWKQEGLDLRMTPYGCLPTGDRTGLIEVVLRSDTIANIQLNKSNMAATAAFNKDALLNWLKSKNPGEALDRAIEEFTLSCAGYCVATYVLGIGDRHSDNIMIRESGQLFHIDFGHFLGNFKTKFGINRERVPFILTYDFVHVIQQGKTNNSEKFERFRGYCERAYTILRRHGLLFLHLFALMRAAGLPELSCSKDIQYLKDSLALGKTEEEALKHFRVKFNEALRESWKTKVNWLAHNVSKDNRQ
PI3K p110δ, sequence (P27986 whole entry partner, canonical isoform): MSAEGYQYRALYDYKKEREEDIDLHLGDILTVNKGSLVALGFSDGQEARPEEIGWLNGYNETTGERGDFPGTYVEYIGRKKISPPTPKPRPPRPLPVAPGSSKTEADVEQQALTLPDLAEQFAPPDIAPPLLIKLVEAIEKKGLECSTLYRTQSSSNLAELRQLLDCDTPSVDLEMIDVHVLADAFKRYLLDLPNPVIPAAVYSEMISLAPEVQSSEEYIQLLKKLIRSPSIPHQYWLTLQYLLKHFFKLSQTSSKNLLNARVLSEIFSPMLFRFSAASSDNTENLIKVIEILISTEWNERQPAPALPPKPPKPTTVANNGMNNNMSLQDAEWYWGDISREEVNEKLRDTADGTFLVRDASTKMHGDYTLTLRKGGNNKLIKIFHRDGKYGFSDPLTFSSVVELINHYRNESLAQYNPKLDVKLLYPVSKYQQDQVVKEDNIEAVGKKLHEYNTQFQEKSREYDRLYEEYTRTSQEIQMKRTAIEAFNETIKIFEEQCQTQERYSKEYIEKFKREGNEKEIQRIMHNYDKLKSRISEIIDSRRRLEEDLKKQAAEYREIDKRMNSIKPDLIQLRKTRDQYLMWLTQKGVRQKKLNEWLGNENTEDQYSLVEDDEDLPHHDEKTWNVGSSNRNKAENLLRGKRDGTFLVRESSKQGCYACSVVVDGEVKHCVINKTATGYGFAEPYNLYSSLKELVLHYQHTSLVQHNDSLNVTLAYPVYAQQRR
PI3K p110β, sequence (P42338 whole entry, canonical isoform): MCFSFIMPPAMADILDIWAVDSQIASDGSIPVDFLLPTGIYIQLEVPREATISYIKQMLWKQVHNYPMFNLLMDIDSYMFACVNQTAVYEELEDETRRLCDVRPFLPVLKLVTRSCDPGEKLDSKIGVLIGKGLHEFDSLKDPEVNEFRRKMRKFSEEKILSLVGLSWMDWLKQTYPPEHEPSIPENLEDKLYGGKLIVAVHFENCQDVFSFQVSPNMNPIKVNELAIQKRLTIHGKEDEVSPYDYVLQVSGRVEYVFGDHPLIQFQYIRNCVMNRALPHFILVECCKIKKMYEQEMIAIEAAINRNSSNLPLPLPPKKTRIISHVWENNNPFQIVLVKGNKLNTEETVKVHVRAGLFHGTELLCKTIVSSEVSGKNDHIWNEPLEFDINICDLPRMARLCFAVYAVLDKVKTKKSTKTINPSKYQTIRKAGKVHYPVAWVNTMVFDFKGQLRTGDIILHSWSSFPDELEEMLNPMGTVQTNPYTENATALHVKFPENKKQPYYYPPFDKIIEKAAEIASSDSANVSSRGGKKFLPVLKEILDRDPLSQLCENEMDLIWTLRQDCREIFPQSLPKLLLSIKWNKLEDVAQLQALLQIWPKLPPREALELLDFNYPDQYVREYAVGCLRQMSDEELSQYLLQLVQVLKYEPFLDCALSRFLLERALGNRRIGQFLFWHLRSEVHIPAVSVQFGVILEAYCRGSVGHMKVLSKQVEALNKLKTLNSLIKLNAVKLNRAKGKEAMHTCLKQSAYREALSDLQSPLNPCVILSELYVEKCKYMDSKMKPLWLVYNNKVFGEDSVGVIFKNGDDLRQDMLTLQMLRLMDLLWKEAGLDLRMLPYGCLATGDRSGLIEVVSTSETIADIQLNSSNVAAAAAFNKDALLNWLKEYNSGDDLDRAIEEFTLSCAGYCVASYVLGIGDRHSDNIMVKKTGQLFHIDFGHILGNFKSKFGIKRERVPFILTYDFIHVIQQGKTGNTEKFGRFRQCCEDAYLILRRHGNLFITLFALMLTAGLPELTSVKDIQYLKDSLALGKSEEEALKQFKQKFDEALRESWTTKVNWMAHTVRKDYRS
PI3K p110β, sequence (P27986 whole entry partner, canonical isoform): as the sequence (P27986 whole entry partner, canonical isoform) above
PI3K p110α, sequence (P42336 whole entry, canonical isoform): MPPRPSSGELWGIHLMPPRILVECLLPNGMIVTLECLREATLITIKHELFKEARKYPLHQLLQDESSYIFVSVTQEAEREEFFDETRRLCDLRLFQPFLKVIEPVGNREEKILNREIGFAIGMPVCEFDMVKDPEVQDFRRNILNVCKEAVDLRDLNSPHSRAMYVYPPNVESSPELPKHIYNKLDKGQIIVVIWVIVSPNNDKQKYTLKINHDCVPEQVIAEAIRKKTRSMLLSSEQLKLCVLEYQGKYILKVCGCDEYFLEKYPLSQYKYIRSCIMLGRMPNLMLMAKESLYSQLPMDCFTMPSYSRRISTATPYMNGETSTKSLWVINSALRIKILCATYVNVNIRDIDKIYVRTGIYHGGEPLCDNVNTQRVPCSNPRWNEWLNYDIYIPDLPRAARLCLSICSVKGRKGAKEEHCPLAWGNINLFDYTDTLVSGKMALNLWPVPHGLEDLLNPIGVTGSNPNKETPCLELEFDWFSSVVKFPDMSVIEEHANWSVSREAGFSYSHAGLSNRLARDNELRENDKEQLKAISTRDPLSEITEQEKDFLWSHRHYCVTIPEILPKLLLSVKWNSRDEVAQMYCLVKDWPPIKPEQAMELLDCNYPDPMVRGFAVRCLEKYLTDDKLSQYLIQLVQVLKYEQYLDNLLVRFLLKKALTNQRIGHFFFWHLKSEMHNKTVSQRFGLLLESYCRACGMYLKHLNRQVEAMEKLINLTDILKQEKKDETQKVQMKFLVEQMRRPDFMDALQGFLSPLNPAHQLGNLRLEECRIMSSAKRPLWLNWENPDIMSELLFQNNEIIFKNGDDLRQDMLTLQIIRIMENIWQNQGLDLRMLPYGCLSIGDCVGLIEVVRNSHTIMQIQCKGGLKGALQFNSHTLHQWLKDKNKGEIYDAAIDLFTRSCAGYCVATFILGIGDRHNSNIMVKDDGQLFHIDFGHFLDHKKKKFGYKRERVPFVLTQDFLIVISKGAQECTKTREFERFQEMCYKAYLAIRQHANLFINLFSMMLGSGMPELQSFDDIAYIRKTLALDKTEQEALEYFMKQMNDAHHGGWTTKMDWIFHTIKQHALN
PI3K p110α, sequence (P27986 whole entry partner, canonical isoform): as the sequence (P27986 whole entry partner, canonical isoform) above

| Compound | IC50 [1] | IC50 [2] | IC50 [3] | IC50 [4] | IC50 ([5]; Fibroblast) | IC50 ([6]; Homo sapiens, PC-3) | IC50 ([7]; Homo sapiens) | IC50 ([8]; Homo sapiens) | further results |
| --- | --- | --- | --- | --- | --- | --- | --- | --- | --- |
| c1cc(-c2nc(N3CCOCC3)c3sc4ncccc4c3n2)c2cc[nH]c2c1 [A, 2-(1H-Indol-4-yl)-4-morpholin-4-yl-pyrido[3′,2′:4,5]thieno[3,2-d]pyrimidine] | 54 nM | 137 nM | 15 nM | 873 nM | 1350 nM | 3010 nM | 331 nM | 151 nM | – |
| c1cc(-c2nc(N3CCOCC3)c3oc4ncccc4c3n2)c2cc[nH]c2c1 [B, 2-(1H-Indol-4-yl)-4-morpholin-4-yl-pyrido[3′,2′:4,5]furo[3,2-d]pyrimidine] | 159 nM | 19 nM | 6 nM | 317 nM | 817 nM | 1340 nM | 145 nM | 229 nM | inhibition at 1 µM [9]: 26%; inhibition at 1 µM [10]: 73%; inhibition at 1 µM [11]: 99%; inhibition at 1 µM [12]: 96%; inhibition at 1 µM [13]: 96%; inhibition at 1 µM [14]: 94% |
| c1cc(-c2nc(N3CCOCC3)c3oc4ncc(CN5CCCCC5)cc4c3n2)c2cc[nH]c2c1 [Compound I, 2-(1H-Indol-4-yl)-4-morpholin-4-yl-8-piperidin-1-ylmethyl-pyrido[3′,2′:4,5]furo[3,2d]pyrimidine] | – | – | – | – | 5720 nM | – | – | – | inhibition at 1 µM [9]: 61%; inhibition at 1 µM [10]: 80%; inhibition at 1 µM [11]: 95%; inhibition at 1 µM [12]: 95%; inhibition at 1 µM [13]: 96%; inhibition at 1 µM [14]: 90% |
| c1cnc2oc3c(N4CCOCC4)nc(-c4ccnc5[nH]ccc45)nc3c2c1 [D, 4-Morpholin-4-yl-2-(1H-pyrrolo[2,3-b]pyridin-4-yl)-pyrido[3′,2′:4,5]furo[3,2-d]pyrimidine] | 104 nM | 57 nM | 33 nM | 103 nM | – | – | – | – | – |
| c1cc(-c2cnc3oc4c(N5CCOCC5)nc(-c5cccc6[nH]ccc56)nc4c3c2)c2cc[nH]c2c1 [E, 2,8-Bis-(1H-indol-4-yl)-4-morpholin-4-yl-pyrido[3′,2′:4,5]furo[3,2-d]pyrimidine] | 88 nM | 69 nM | 7 nM | 627 nM | – | – | – | – | – |
| CN(C)C(=O)/C=C/c1cnc2oc3c(N4CCOCC4)nc(-c4cccc5[nH]ccc45)nc3c2c1 [G, (E)-3-[2-(1H-Indol-4-yl)-4-morpholin-4-yl-pyrido[3′,2′:4,5]furo[3,2-d]pyrimidin-8-yl]-N,N-dimethylacrylamide] | 223 nM | 83 nM | 5 nM | 1660 nM | – | 3770 nM | 127 nM | 186 nM | – |
| CN(C)Cc1cnc2oc3c(N4CCOCC4)nc(-c4cccc5[nH]ccc45)nc3c2c1 [H, [2-(1H-Indol-4-yl)-4-morpholin-4-yl-pyrido[3′,2′:4,5]furo[3,2-d]pyrimidin-8-ylmethyl]-dimethyl-amine] | 398 nM | 63 nM | 6 nM | 213 nM | 1900 nM | 3030 nM | 165 nM | 466 nM | inhibition at 1 µM [9]: 75%; inhibition at 1 µM [10]: 87%; inhibition at 1 µM [11]: 99%; inhibition at 1 µM [12]: 96%; inhibition at 1 µM [13]: 96%; inhibition at 1 µM [14]: 93% |
| CN1CCN(Cc2cnc3oc4c(N5CCOCC5)nc(-c5cccc6[nH]ccc56)nc4c3c2)CC1 [J, 2-(1H-Indol-4-yl)-8-(4-methyl-piperazin-1-ylmethyl)-4-morpholin-4-yl-pyrido[3′,2′:4,5]furo[3,2-d]pyrimidine] | 680 nM | 277 nM | 26 nM | 1040 nM | – | – | – | – | – |
| c1cc(-c2nc(N3CCOCC3)c3oc4ncc(CN5CCOCC5)cc4c3n2)c2cc[nH]c2c1 [K, 2-(1H-Indol-4-yl)-4-morpholin-4-yl-8-morpholin-4-ylmethyl-pyrido[3′,2′:4,5]furo[3,2-d]pyrimidine] | 355 nM | 64 nM | 6 nM | 2610 nM | 3020 nM | 3340 nM | 352 nM | 682 nM | – |
| COCCN(C)Cc1cnc2oc3c(N4CCOCC4)nc(-c4cccc5[nH]ccc45)nc3c2c1 [L, [2-(1H-Indol-4-yl)-4-morpholin-4-yl-pyrido[3′,2′:4,5]furo[3,2-d]pyrimidin-8-ylmethyl]-(2-methoxy-ethyl)-methyl-amine] | 604 nM | 111 nM | 21 nM | 1820 nM | – | 3240 nM | 119 nM | 1600 nM | – |
| c1cc(-c2nc(N3CCOCC3)c3oc4ncc(N5CCOCC5)cc4c3n2)c2cc[nH]c2c1 [M, 2-(1H-Indol-4-yl)-4,8-di-morpholin-4-yl-pyrido[3′,2′:4,5]furo[3,2-d]pyrimidine] | 96 nM | 25 nM | 10 nM | 219 nM | 1610 nM | – | – | – | – |
| N#CCCN1CCN(Cc2cnc3oc4c(N5CCOCC5)nc(-c5cccc6[nH]ccc56)nc4c3c2)CC1 [R, 3-{4-[2-(1H-Indol-4-yl)-4-morpholin-4-yl-pyrido[3′,2′:4,5]furo[3,2-d]pyrimidin-8-ylmethyl]-piperazin-1-yl}-propionitrile] | 597 nM | 131 nM | 22 nM | 2540 nM | – | – | – | – | – |
| (E)-1-(4-Methyl-piperazin-1-yl)-3-[4-morpholin-4-yl-2-(1H-pyrrolo[2,3-b]pyridin-4-yl)-pyrido[3′,2′:4,5]furo[3,2-d]pyrimidin-8-yl]-propenone | 127 nM | 109 nM | 6 nM | 269 nM | – | – | – | – | % Inhibition of Proinflammatory Cytokine Production at 1 uM, TNFα [9]: 74%; % Inhibition of Proinflammatory Cytokine Production at 1 uM, IFNγ [10]: 67%; % Inhibition of Proinflammatory Cytokine Production at 1 uM, IL-17A [11, 15]: 77%; % Inhibition of Proinflammatory Cytokine Production at 1 uM, IL-17F [12, 15]: 74%; % Inhibition of Proinflammatory Cytokine Production at 1 uM, IL-21 [13, 15]: 82%; % Inhibition of Proinflammatory Cytokine Production at 1 uM, IL-23 [14, 15]: 93%; IC50 [5]: 2240 nM; IC50 [6]: 7290 nM; IC50 [7]: 215 nM; IC50 [8]: 1150 nM |
